Data from patent US10351587B2, “Method of making and using 7α, 11β-dimethyl-17β-hydroxyestr-4-en-3-one 17-undecanoate” (The United States of America, as represented by the …, priority 2000, dated 2019).
Where “and” joins values, the source holds several entries; their conditions need not be identical. Identical values can stand only once. Entries after “also recorded” stand apart in the source; their conditions may differ.

Columns and labels:
[1] = tested on: castrate Sprague-Dawley rats; experiment: Duration of activity after a single subcutaneous injection (ventral prostate weight over weeks, AUC); type: in vivo; conditions: for AUC of ventral prostate weight (FIG. 15) / AUC of ventral prostate weight (FIG. 5) / Long-term androgenic activity (ventral prostate weight over time), in words: single subcutaneous injection; for AUC of ventral prostate weight (FIG. 5): n=5
Method: Immature (about 21-day-old) Sprague-Dawley rats were orchidectomized under anesthesia, and randomly assignee to groups of ten animals for each dose level of the active undergoing testing. Each active was administered by subcutaneous injection each day for seven days beginning on the date of the orchidectomy. The animals were sacrificed 24 hours after the last dose, and the ventral prostate and seminal vesicles were excised, cleaned of fat and connective tissue, blotted on moist filter paper and weighed to the nearest 0.1 mg. Regression analysis was performed by conventional methods using a PROPHET data management system. Ventral prostate weight was used as the endpoint because it is the sensitive organ to androgenic stimulation.
Except for testosterone enanthate, each active was formulated in two different carriers: (1) an aqueous suspension and (2) in sesame oil. Testosterone enanthate was formulated using the sesame oil carrier only, because it exists as a liquid at room temperature and could not therefore be formulated as an aqueous suspension.
(§1) The carrier used to provide the aqueous suspension was formulated as follows: 1 g benzyl alcohol, 0.5 g sodium carboxylethyl cellulose 50, 0.376 g disodium hydrogen phosphate dihydrate, 1.495 g sodium dihydrogen phosphate dihydrate, with water for injection (WFI) being added to bring volume of the carrier up to 100 ml.
Each formulation was prepared at a concentration of 0.6 mg/0.2 ml.
(§2) Immature (about 21-day-old) Sprague-Dawley rats were orchidectomized under anesthesia, and randomly assignee to groups of 40 or more. Animals received a single subcutaneous injection of 0.6 mg of each ester in 0.2 ml of an aqueous suspending carrier and/or oily carrier (10% ethanol/90% sesame oil or ethyl oleate) on the date of the orchidectomy. In cases where the ester was not solid at room temperature, 10% ethanol/sesame oil or ethyl oleate was used as the carrier. In this example, the carrier used to provide the aqueous suspension was formulated as follows: 1 g benzyl alcohol, 0.5 g sodium carboxylethyl cellulose 50, 0.376 g disodium hydrogen phosphate dihydrate, 1.495 g sodium dihydrogen phosphate dihydrate, with water for injection (WFI) being added to bring volume of the carrier up to 100 ml.
Five animals from each group were sacrificed at weekly or biweekly intervals, and the ventral prostate and seminal vesicles were excised, cleaned of fat and connective tissue, blotted on moist filter paper and weighed to the nearest 0.1 mg.
Ventral prostate weight was used as the endpoint because it is the sensitive organ to androgenic stimulation. Regression analysis was performed by conventional methods using the PROPHET data management system previously identified.
Immature (about 21-day-old) Sprague-Dawley rats were orchidectomized under anesthesia, and randomly assignee to groups of 40 or more. Animals received a single subcutaneous injection of 0.6 mg of the undecanoate in 0.2 ml of an aqueous suspending carrier and/or oily carrier (10% ethanol/90% sesame oil containing 5 mg/ml chlorobutanol as a preservative, or ethyloleate) on the date of the orchidectomy. The enanthate ester was formulated using the 10% ethanol/sesame oil or ethyloleate carrier as a first standard, with the 10% ethanol/sesame oil carrier used as a second standard.
as §1, with “In this example, the” for “The”

[2] = tested on: castrate Sprague-Dawley rats; experiment: Hershberger test, subcutaneous administration for seven days (ventral prostate weight); type: in vivo; conditions: for Androgenic Potency of Corresponding Alcohol: ventral prostate weight assay following subcutaneous administration, alcohol of G = 1.0 (assigned), value is for the free alcohol of the listed ester; for Androgenic activity Potency Ratio, subcutaneous: subcutaneous daily for 7 days in 10% EtOH/sesame oil, testosterone subcutaneous standard = 1.0 (assigned), ventral prostate weight
Method: (§3) Immature (about 21-day-old) Sprague-Dawley rats were orchidectomized under anesthesia, and randomly assignee to groups of ten animals for each dose level of the active undergoing testing. Each active was dissolved in 10% ethanol/sesame oil and administered by gavage (oral) or subcutaneous injection each day for seven days beginning on the date of the orchidectomy. The animals were sacrificed 24 hours after the last dose, and the ventral prostate and seminal vesicles were excised, cleaned of fat and connective tissue, blotted on moist filter paper and weighed to the nearest 0.1 mg. Regression analysis was performed by conventional methods using a PROPHET data management system. Ventral prostate weight was used as the endpoint because it is the sensitive organ to androgenic stimulation.
as §3, with “by” for “by gavage (oral) or”, “mg. See, e.g., Hershberger, L. et al, Myotrophic Activity of 19-nortestosterone And Other Steroids Determined By Modified Levator And Muscle Method, Proc. Soc. Exptl. Biol. Med. 83 175-180 (1953).” for “mg.”, “system. See, e.g., Bliss, C., The Statistics of Bioassay (Academic Press, New York, 1952); Hollister, C., Nucleic Acids Res. 16 1873-75 (1988).” for “system.”

[3] = Serum levels of the free alcohol after a single subcutaneous injection; type: in vivo, Sprague-Dawley rats; conditions: single subcutaneous injection 0.6 mg in aqueous carrier, 10-week observation period
Method: as §2

[4] = tested on: castrate Sprague-Dawley rats; experiment: Hershberger test, oral administration for seven days (ventral prostate weight); type: in vivo
Method: as §3, with “(oral)” for “(oral) or subcutaneous injection”, “mg. See, e.g., Hershberger, L. et al, Myotrophic Activity of 19-nortestosterone And Other Steroids Determined By Modified Levator And Muscle Method, Proc. Soc. Exptl. Biol. Med. 83 175-180 (1953).” for “mg.”, “See, e.g., Bliss, C., The Statistics of Bioassay (Academic Press, New York, 1952); Hollister, C., Nucleic Acids Res. 16 1873-75 (1988). […]” for “Ventral prostate weight was used as the endpoint because it is the sensitive organ to androgenic stimulation.”
Immature (about 21-day-old) Sprague-Dawley rats were orchidectomized under anesthesia, and randomly assignee to groups of ten animals for each dose level of the active undergoing testing. […] See, e.g., Hershberger, L. et al, Myotrophic Activity of 19-nortestosterone And Other Steroids Determined By Modified Levator And Muscle Method, Proc. Soc. […]

[5] = 0.6 mg, ASV (aqueous suspending vehicle)

Compound | AUC of ventral prostate weight (FIG. 5) ([1]; 0.6 mg, S.O. (sesame oil)) | Long-term androgenic activity (ventral prostate weight over time), in words [1] | Androgenic Potency of Corresponding Alcohol [2] | other results
CCCCCCC(=O)O[C@H]1CC[C@H]2[C@@H]3CCC4=CC(=O)CC[C@]4(C)[C@H]3CC[C@]12C [CDB-112E, testosterone enanthate] | 497 | – | – | AUC of ventral prostate weight (FIG. 15) ([1]; 0.6 mg, 10% EtOH/Sesame Oil, 10 week period, listed as CDB-112F): 559 mg-weeks and 559.28 mg-weeks
CCCC[C@H]1CC[C@H](C(=O)O[C@H]2CC=C3[C@H]4[C@H](CC[C@@]32C)[C@H]2CCC(=O)C=C2C[C@H]4C)CC1 [CDB-4327A, 7α-Methyl-14-dehydro-19-nortestosterone-17β-bucyclate] | – | surprising stimulation of ventral prostate size over the entire 20-week observation period | – | –
CCCCC1CCC(C(=O)O[C@H]2CC[C@H]3[C@@H]4CCC5=CC(=O)CC[C@]5(C)[C@H]4CC[C@]23C)CC1 (stereo partly drawn) [CDB-1781a, Testosterone bucyclate] | 186 | significantly less | 1.0 (assigned) | AUC of ventral prostate weight (FIG. 5) ([1]; 1.0 mg, ASV (aqueous suspending vehicle)): 683
CCCCC1CCC(C(=O)O[C@H]2CC[C@H]3[C@H]4[C@H]([C@H](C)C[C@]23C)[C@H]2CCC(=O)C=C2C[C@H]4C)CC1 (stereo partly drawn) [CDB-4386] | – | inactive; also recorded: relatively low activity | – | –
CCCC[C@H]1CC[C@H](C(=O)O[C@H]2CC=C3[C@@H]4[C@H](C)CC5=CC(=O)CC[C@]5(C)[C@H]4CC[C@@]32C)CC1 [C, 7α-Methyl-14-dehydro-testosterone-17β-bucyclate] | – | – | 61.1 | –
CCCC[C@H]1CC[C@H](C(=O)O[C@H]2CC[C@H]3[C@H]4[C@H]([C@@H](C)C[C@]23C)[C@H]2CCC(=O)C=C2C[C@H]4C)CC1 (relative stereo) [CDB-4386A, 7α,11β-Dimethyl-17β-hydroxy-4-estren-3-one 17β-trans-4-n-butylcyclohexane carboxylate] | 157 | most dramatic increase and maintenance of ventral prostate weight; also recorded: greatest AUC over the 10-week period | 19.3 | AUC of ventral prostate weight (FIG. 5) [1, 5]: 1390; Serum levels of the free alcohol (7α,11β-dimethyl-19-nortestosterone) [3]: highest levels of the free alcohol
CCCC[C@H]1CC[C@H](C(=O)O[C@H]2CC[C@H]3[C@H]4[C@H](CC[C@]23C)[C@H]2CCC(=O)C[C@@H]2C[C@H]4C)CC1 [B, 7α-Methyl-5α-dihydro-19-nortestosterone-17β-bucyclate] | – | – | 1.2 | –
CCCCC1CCC(C(=O)OC2CCCC3C4C(C)CC5=CC(=O)CCC5(C)C4CCC23C)CC1 [D, 7α-Methyl-D-homo-testosterone-17β-bucyclate] | – | – | 36.4-61.7^3 | –
C[C@]12CC[C@H]3[C@@H](CCC4=CC(=O)CC[C@@]43C)[C@@H]1CC[C@@H]2O [CDB-111C, testosterone] | – | – | – | Androgenic activity Potency Ratio, subcutaneous [2]: 1.00
CCCC[C@H]1CC[C@H](C(=O)O[C@H]2CC[C@H]3[C@H]4[C@H](CC[C@]23C)[C@H]2CCC(=O)C=C2C[C@H]4C)CC1 [A, 7α-Methyl-19-nortestosterone-17β-bucyclate] | – | – | 8.1^3 | –
CCCCCCCCCCC(=O)O[C@H]1CC[C@H]2[C@H]3[C@H]([C@@H](C)C[C@]12C)[C@H]1CCC(=O)C=C1C[C@H]3C [CDB-4521A, 7α,11β-dimethyl-17β-hydroxyestr-4-en-3-one 17-undecanoate] | – | most dramatic increase and maintenance of ventral prostate weight | – | Androgenic activity Potency Ratio, oral, aqueous suspending vehicle ([4]; oral gavage daily for 7 days in aqueous suspending vehicle (ASV), methyltestosterone in same vehicle = 1.0 (assigned)): 0.95; Androgenic activity Potency Ratio, subcutaneous [2]: 0.52; AUC of ventral prostate weight relative to testosterone enanthate in sesame oil ([1]; single subcutaneous injection 0.6 mg, active in aqueous vehicle, 10 week period): about 3 times; AUC of ventral prostate weight (FIG. 15) ([1]; 0.6 mg, 10% EtOH/Sesame Oil, 10 week period): 620 mg-weeks; AUC of ventral prostate weight (FIG. 15) ([1]; 0.6 mg, Aqueous Suspending Vehicle, 10 week period): 1817 mg-weeks
C[C@@H]1CC2=CC(=O)CC[C@@H]2[C@@H]2[C@@H]1[C@@H]1CC[C@H](O)[C@@]1(C)C[C@@H]2C [CDB-1321D, 7α,11β-Dimethyl-17β-hydroxy-4-estren-3-one] | 166 | – | – | AUC of ventral prostate weight (FIG. 5) [1, 5]: 460
CCCCCCCCCCC(=O)O[C@H]1CC[C@H]2[C@H]3[C@H]([C@@H](C)C[C@]12C)[C@H]1CCC(=O)C=C1C[C@H]3C [7α,11β-dimethyl-17β-hydroxyestr-4-en-3-one 17-undecanoate] | – | – | – | Androgenic activity Potency Ratio, oral ([4]; oral gavage daily for 7 days in 10% EtOH/sesame oil, methyltestosterone oral standard = 1.0 (assigned), ventral prostate weight): about twice that of methyltestosterone
